Reference: patent US9211314B2, “Treatment selection for lung cancer patients using mass spectrum of blood-based sample” (Biodesix, Inc., priority 2014, dated 2015)
“And” between values parts separate entries of the source, which are not always exact repeats. Identical values can stand only once.

Assays:
advanced NSCLC patients [1] = experiment: PROSE study: second-line erlotinib versus chemotherapy, OS and PFS by VS2.0/VS1.0 classification; assay type: in vivo, human
Protocol: The final CMC/D classifier described above was subject to a test on mass spectra obtained from available samples from the PROSE study under a validation protocol. The final CMC/D classifier was deemed fixed prior to this validation protocol. Mass spectra were provided to analysts blinded to their clinical data. The spectra were analyzed as described above and the resulting classifications (Appendix G) were generated. An un-blinding key was then provided and a statistical analysis was carried out.
For patient 01—044 and patient 01—080, two samples were available. […] No samples were available for patient 01—050, patient 03—006, patient 06—004, patient 06—021, patient 11—043, patient 11—048, and patient 12—014.

advanced NSCLC patients [2] = details: PROSE, patients classified as VSP (VS1.0); cited from earlier work
advanced NSCLC patients [3] = experiment: Time-to-event outcomes (OS, PFS) of development set patients (Italian A, B, C cohorts) grouped by VS2.0/VS1.0 classification; assay type: in vivo, human; details: for Cox HR (95% CI), OS / Cox HR (95% CI), PFS / Median OS / Median PFS: development set
From the text: The following cohorts of patients had samples available for this project: sample sets known as “Italian A”, “Italian B”, “Italian C.” Italian A and B were cohorts of patients with advanced NSCLC treated with gefitinib used in the development and validation of the original VeriStrat test. See generally, U.S. Pat. No. 7,736,905; Taguchi et al., JNCI 99: 838-846 (2007). Italian C was a cohort of patients treated in advanced line with a variety of chemotherapy regimens.
The VS2.0 final classifier was applied to all samples in the development set. Note that this includes samples included in training of the classifier. The VS2.0 classifications of the development set samples are given in Appendix E. Notice that all samples with a VS1.0 classification of Poor were assigned a label of Early. OS and PFS are plotted for patients in the development set grouped according to: Late, Unknown and Early (excluding VS1.0 Poor) and VS 1.0 Poor in FIG. 6. Note that several patients in the Italian C cohort had OS data, but no PFS data. FIG. 6 is a plot of time-to-event outcomes of patients in the development set with labels assigned from development set spectra; FIG. 6A: OS for gefitinib-treated patients, FIG. 6B: PFS for gefitinib-treated patients, FIG. 6C: OS for chemotherapy-treated patients and FIG. 6D PFS for chemotherapy-treated patients.

[4] = group Early/Unknown (VS1.0 Good)
[5] = comparison Early/Unk vs Late within treatment
[6] = comparison Poor vs Early/Unk within treatment
[7] = comparison Poor vs Late within treatment
[8] = group Early/Unknown (excluding VS1.0 Poor)

C#Cc1cccc(Nc2ncnc3cc(OCCOC)c(OCCOC)cc23)c1 [ERL, erlotinib]
Median OS (advanced NSCLC patients [1]; [4]): 9.6 months
Median PFS (advanced NSCLC patients [1]; [4]): 2.3 months
Median OS (advanced NSCLC patients [1]; group Late): 17.1 months
Median PFS (advanced NSCLC patients [1]; group Late): 3.9 months
Median OS (advanced NSCLC patients [1]; group Late, listed as erlotinib): 17.1 months and 17 months
Median OS (advanced NSCLC patients [1]; group VS1.0 Poor): 3.1 months
Median PFS (advanced NSCLC patients [1]; group VS1.0 Poor): 1.7 months
HR (95% CI), OS, Treatment: CT vs ERL (advanced NSCLC patients [1]; multivariate analysis of VS1.0 Good population): 1.12 (0.85-1.65)
Survival, erlotinib versus chemotherapy (advanced NSCLC patients [2]): better survival on chemotherapy versus erlotinib

COc1cc2ncnc(Nc3ccc(F)c(Cl)c3)c2cc1OCCCN1CCOCC1 [GEF, gefitinib]
Cox HR (95% CI), OS (advanced NSCLC patients [3]; [5]): 0.59 (0.37-0.94)
Cox HR (95% CI), PFS (advanced NSCLC patients [3]; [5]): 0.58 (0.37-0.91)
Cox HR (95% CI), OS (advanced NSCLC patients [3]; [6]): 0.49 (0.33-0.75)
Cox HR (95% CI), PFS (advanced NSCLC patients [3]; [6]): 0.64 (0.42-0.95)
Cox HR (95% CI), OS (advanced NSCLC patients [3]; [7]): 0.30 (0.18-0.49)
Cox HR (95% CI), PFS (advanced NSCLC patients [3]; [7]): 0.36 (0.22-0.60)
Median OS (advanced NSCLC patients [3]; [8]): 243 days
Median PFS (advanced NSCLC patients [3]; [8]): 92 days
Median OS (advanced NSCLC patients [3]; group Late): 457 days
Median PFS (advanced NSCLC patients [3]; group Late): 208 days
Median OS (advanced NSCLC patients [3]; group VS1.0 Poor): 96.5 days
Median PFS (advanced NSCLC patients [3]; group VS1.0 Poor): 61.5 days
Benefit by overall survival curves, gefitinib versus chemotherapy (advanced NSCLC patients [3]; patients whose sample tested Late, FIGS. 6A and 6C): greater benefit from gefitinib than chemotherapy
